Key:
A498 = assay: MTT-microculture tetrazolium assay, growth inhibition of renal A498 cells; format: cell-based; details: Homo sapiens, 144 h; Renal cell line A498; 6 days at 37° C.; 0.5% DMSO
Description: (§1) Tests carried out in accordance with the procedures described in Cancer Research 48, 589-601, February 1988, Feasibility of Drug Screening with Panels of Human Tumor Cell Lines Using a Microculture Tetrazolium Assay--Shoemaker et al., and Cancer Research 48, 4827-4833, September 1988, Evaluation of a Soluble Tetrazolium/Formazan Assay for Cell Growth and Drug Sensitivity in Culture using Human and other Tumor Cell Lines--Shoemaker et al. A brief description of this procedure follows. For further details refer to the above identified articles.
(§2) The procedure was carried out on cell lines from various disease types. Cell lines were maintained as stocks in RPMI 1640 (Quality Biological, Gaithersburg, Md.) supplemented with 10% fetal bovine serum (Sterile Systems, Logon, UT) and 2mM L-glutamine (Central Medium Laboratory, NCI FCRF). Cell cultures were passaged once or twice weekly using trypsin-EDTA(Central Medium Laboratory, NCI-FCRF) to detach the cells from their culture flasks. […]
(§3) Cellular growth in the presence or absence of the test compound was determined using the MTT-microculture tetrazolium assay. In the MTT assay rapidly growing cells are harvested, counted and inoculated at the appropriate concentrations (100-μl volume) into 96-well microtiter plates using a multichannel pipet. […]

A704 = assay: MTT-microculture tetrazolium assay, growth inhibition of renal A704 cells; format: cell-based; details: Homo sapiens, 144 h; Renal cell line A704; 6 days at 37° C.; 0.5% DMSO
Description: as §1, §2, §3

SN-12KI = assay: MTT-microculture tetrazolium assay, growth inhibition of renal SN-12KI cells; format: cell-based; details: Homo sapiens, 144 h; Renal cell line SN-12KI; 6 days at 37° C.; 0.5% DMSO
Description: as §1, §2, §3

[1] = tested on: cell lines derived from renal carcinomas; assay: MTT-microculture tetrazolium assay, growth inhibition of cell lines derived from renal carcinomas; format: cell-based, human; details: at the indicated concentrations; 6 days at 37° C.
Description: as §1, §2, §3

## CS(=O)(=O)NCCN[C@@H]1CCN2CCc3c(oc4ccccc34)[C@@H]2C1 (relative stereo) [(2RS,12bSR)-N-[2-(1,3,4,6,7,12b-hexahydro-2H-benzo[b]furo[2,3-a]quinolizin-2-yl)]-N-2-((methanesulfonyl)ethyl)amine]
A498
  IC50: 1.6 µM
A704
  IC50: 0.16 µM
SN-12KI
  IC50: 6.3 µM
[1]
  growth inhibition of cell lines derived from renal carcinomas (in words): selectively inhibit the growth of cell lines derived from renal carcinomas
